The values that follow are results of earlier work, collected in US9668844B2, “Device for fixation at a dental site” (Colldent Y.A. Ltd., priority 2013, dated 2017).

SMILES strings stand for the structures.

For one data set, the system named is bacteria. The settings on record: see Paine, M. L. et al JADA 129 (1998).

With `F` [fluoride], the “acute lethal dose of fluoride (F)” value (acute) is on record as 33 mg F/Kg body weight. Further, the chronic toxicity (chronic) is reported as 0.1 mg F/Kg. With `[F][Sn][F]` [stannous fluoride], the antibacterial activity result in the data set with bacteria is given as “has shown antibacterial activity”.
